In test [1] the target is T1, SUMO-activating enzyme (Homo sapiens, UniProt Q9UBT2). Briefly: SUMOylation inhibitor hit validation, confirmation, SUMOylation inhibitor project, biochemical, AlphaScreen (AID 2018). It is filed as functional. Background: Alpha assays give light when donor and acceptor beads are brought close together.
For test [2], the target named is T1, SUMO-activating enzyme. Briefly: inhibitors of in vitro SUMOylation cascade, primary screen, biochemical, HTRF, uHTS (AID 2006). It is filed as protein-complex assay.
Test [3] addresses T2, Tyrosine-protein phosphatase non-receptor type 12 (Homo sapiens, UniProt Q05209).
T2 sequence (Q05209 whole entry): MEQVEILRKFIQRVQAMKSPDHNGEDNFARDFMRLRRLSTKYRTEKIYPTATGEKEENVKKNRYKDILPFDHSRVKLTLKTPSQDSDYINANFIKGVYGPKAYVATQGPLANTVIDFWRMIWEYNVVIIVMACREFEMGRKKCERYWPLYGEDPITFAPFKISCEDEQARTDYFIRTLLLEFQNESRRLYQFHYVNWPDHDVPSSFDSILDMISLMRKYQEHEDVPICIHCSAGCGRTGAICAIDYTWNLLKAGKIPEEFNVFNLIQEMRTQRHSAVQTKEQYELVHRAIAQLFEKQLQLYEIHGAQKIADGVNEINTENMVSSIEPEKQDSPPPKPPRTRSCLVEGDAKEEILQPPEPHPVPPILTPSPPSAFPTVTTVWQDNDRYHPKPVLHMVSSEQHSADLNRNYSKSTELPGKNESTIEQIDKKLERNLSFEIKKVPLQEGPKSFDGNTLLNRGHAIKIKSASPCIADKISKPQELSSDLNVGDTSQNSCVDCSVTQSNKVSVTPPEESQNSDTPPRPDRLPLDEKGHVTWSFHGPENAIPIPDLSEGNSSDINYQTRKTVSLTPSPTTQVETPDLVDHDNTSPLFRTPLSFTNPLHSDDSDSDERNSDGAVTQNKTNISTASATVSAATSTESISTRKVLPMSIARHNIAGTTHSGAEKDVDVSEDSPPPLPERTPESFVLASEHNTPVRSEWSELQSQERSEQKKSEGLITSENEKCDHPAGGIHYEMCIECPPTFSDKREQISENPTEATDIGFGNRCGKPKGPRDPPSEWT
The test can be described thus: SAR Selectivity Analysis of small molecule inhibitors of PEST using pCAP in a fluorescence assay. [Related pubchem assays (depositor defined):AID1779, AID1784, AID2135]. It is filed as functional.

The target of test [4] is T3, Tyrosine-protein phosphatase non-receptor type 22 (Homo sapiens, UniProt Q9Y2R2).
T3 sequence (Q9Y2R2 whole entry): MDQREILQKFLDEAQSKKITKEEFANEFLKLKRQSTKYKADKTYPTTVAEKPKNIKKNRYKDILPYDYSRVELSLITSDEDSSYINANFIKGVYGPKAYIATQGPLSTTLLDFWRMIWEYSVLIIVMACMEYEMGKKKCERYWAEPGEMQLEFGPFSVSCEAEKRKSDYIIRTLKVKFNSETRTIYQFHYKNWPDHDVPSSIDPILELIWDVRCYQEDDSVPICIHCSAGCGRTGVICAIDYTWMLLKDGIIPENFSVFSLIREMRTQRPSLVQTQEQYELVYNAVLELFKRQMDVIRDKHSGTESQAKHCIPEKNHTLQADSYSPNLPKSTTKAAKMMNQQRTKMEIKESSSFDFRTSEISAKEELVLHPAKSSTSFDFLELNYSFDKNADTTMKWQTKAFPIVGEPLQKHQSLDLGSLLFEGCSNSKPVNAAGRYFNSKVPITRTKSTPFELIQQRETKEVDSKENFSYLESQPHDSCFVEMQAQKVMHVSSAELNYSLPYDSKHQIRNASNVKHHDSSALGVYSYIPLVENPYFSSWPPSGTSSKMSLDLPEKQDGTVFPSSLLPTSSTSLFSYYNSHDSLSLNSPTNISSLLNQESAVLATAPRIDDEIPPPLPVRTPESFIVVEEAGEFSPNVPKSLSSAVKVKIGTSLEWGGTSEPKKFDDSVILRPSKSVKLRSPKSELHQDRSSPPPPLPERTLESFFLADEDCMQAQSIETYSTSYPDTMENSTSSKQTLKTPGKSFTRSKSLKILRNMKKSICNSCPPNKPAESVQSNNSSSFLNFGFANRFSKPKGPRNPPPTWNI
Briefly: SAR LYP1 Fluorescent Assay using OMFP substrate for In Vitro dose response studies - Set 3. [Related pubchem assays (depositor defined):AID1779, AID1784, AID2140, AID2686]. It is filed as functional.

Test [5] deals with T4, Tyrosine-protein phosphatase non-receptor type 7 (Homo sapiens, UniProt P35236).
T4 sequence (P35236 whole entry): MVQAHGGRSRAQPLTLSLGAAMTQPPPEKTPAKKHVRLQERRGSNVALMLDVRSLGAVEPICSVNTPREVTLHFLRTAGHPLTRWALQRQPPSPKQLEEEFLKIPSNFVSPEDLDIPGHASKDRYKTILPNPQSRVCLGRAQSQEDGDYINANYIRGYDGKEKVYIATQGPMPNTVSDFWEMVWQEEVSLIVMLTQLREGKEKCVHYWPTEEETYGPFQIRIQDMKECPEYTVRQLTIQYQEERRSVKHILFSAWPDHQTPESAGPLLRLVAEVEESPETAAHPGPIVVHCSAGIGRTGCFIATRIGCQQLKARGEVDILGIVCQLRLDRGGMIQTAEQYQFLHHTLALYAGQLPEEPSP
The test can be described thus: redox-dependent HePTP inhibition, mechanism study, biochemical, fluorescence (AID 2068). Format: functional.

Test [6] concerns the target T4, Tyrosine-protein phosphatase non-receptor type 7. The test can be described thus: HePTP (PTPN7) phosphatase inhibitor potency, SAR follow-up, biochemical, set 2 (AID 449736). It is filed as functional.
The target in test [7] is T3, Tyrosine-protein phosphatase non-receptor type 22. Briefly: LYP (PTPN22) phosphatase inhibitor potency, SAR follow-up, biochemical, pCAP fluorogenic substrate, fluorescence, set 3 (AID 449727). It is filed as functional.
For test [8], the target named is Dual specificity protein phosphatase 3 (Homo sapiens, UniProt P51452). Briefly: SAR VHR1 Fluorescent Assay for In Vitro dose response studies Set 2. [Related pubchem assays (depositor defined):AID1654, AID1661, AID1878]. It is filed as functional.
Dual specificity protein phosphatase 3, sequence (P51452 whole entry): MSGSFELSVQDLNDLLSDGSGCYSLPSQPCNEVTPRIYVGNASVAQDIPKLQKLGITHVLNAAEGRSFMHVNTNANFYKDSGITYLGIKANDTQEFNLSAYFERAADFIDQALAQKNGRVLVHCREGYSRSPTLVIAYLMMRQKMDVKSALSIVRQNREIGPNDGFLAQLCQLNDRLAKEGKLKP
Test [9] has as its target Dual specificity protein phosphatase 6 (Rattus norvegicus, UniProt Q64346). It is filed as functional.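 Note: confirmatory in vitro dose-response testing of MKP-3 inhibition; recombinant His-tagged MKP-3 made in E. coli BL21 with OMFP substrate.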
The target in test [10] is T5, Carboxy-terminal domain RNA polymerase II polypeptide A small phosphatase 1 (Homo sapiens, UniProt Q9GZU7).
T5 sequence (Q9GZU7 whole entry): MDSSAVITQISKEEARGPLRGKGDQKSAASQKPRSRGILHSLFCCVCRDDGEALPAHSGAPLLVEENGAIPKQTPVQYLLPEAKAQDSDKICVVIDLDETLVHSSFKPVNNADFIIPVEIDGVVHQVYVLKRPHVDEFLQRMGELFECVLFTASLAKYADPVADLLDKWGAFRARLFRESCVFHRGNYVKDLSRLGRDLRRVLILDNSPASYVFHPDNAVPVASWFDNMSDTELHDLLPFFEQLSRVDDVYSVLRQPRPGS
Briefly: inhibitors of CTDSP1, concentration-response testing, biochemical assay, absorbance-based, actives from ultra-high-throughput screening (AID 540297). It is filed as functional.

The target of test [11] is Arf-GAP with SH3 domain, ANK repeat and PH domain-containing protein 1 (Homo sapiens, UniProt Q9ULH1). It is filed as functional.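 Note: biochemical fluorescence polarization dose–response screen measuring inhibition of ASAP1; ASAP1 GAP domain stimulating GTP hydrolysis by truncated human ARF1.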
Arf-GAP with SH3 domain, ANK repeat and PH domain-containing protein 1, sequence (Q9ULH1 whole entry, the tested form may be a part): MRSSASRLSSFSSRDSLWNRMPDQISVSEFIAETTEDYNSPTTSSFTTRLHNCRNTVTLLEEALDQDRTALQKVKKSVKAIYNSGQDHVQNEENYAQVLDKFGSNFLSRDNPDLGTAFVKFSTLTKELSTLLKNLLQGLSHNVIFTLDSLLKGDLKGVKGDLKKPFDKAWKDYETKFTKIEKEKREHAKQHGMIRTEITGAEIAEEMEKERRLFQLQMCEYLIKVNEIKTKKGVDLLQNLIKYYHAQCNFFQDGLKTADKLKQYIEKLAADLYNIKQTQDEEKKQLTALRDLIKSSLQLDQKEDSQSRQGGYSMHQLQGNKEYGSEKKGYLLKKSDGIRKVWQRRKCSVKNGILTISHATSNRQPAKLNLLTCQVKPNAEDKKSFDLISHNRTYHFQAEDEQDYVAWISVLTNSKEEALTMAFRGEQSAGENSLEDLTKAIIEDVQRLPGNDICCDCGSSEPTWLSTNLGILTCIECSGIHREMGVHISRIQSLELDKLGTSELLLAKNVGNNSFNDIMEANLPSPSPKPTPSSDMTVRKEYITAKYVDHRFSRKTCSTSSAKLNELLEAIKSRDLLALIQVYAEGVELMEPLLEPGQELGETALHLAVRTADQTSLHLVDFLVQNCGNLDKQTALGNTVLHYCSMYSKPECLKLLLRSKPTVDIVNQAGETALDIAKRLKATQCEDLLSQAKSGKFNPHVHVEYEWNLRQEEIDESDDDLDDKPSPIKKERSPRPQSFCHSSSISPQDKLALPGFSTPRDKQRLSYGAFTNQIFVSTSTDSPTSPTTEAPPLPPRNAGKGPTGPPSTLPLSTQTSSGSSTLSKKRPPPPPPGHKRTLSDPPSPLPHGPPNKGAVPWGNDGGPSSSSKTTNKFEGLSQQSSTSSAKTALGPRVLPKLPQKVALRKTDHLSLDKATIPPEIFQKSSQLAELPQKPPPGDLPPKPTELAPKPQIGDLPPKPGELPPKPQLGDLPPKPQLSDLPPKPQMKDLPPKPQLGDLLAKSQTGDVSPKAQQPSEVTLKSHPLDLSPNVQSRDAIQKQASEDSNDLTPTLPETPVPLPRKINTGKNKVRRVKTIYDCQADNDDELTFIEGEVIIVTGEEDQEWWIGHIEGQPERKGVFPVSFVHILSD
The target of test [12] is T6, Apoptotic protease-activating factor 1 (Homo sapiens, UniProt O14727).
T6 sequence (O14727 whole entry): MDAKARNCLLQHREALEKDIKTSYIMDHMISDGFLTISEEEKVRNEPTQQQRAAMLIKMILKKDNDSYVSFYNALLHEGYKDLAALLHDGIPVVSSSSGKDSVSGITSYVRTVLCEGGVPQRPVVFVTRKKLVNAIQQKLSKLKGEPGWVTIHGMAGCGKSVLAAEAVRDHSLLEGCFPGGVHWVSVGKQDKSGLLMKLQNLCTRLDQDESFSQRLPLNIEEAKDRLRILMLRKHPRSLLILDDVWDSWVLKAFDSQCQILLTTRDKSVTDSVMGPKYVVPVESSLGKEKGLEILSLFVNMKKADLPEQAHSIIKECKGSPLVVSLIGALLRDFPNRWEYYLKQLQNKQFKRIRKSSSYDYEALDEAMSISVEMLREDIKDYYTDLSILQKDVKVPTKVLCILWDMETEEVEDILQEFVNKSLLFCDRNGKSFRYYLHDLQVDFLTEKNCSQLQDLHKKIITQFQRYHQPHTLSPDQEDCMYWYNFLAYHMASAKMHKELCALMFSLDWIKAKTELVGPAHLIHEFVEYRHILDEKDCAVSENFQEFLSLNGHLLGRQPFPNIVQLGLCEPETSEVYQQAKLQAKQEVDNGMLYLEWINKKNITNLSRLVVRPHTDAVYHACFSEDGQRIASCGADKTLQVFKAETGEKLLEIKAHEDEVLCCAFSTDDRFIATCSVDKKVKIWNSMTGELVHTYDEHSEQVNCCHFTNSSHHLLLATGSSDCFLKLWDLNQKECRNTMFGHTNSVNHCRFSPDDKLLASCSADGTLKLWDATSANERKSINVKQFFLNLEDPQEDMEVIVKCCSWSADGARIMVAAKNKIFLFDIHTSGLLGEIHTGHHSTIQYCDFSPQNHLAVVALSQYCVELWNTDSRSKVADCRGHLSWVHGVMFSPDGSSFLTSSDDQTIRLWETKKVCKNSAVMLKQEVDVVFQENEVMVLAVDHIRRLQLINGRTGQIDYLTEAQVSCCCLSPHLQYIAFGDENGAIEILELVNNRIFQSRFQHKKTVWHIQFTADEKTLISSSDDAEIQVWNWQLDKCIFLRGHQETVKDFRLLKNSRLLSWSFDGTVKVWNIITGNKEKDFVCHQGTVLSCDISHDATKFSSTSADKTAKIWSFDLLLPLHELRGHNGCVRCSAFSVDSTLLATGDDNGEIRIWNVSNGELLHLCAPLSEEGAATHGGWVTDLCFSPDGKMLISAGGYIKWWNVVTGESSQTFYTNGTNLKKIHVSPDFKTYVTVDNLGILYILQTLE
Briefly: activation of Apaf-1 mediated apoptosis – fluorescent, uHTS hits, dose response (AID 588554). Format: functional.

Test [13] deals with Beta-adrenergic receptor kinase 1 (Homo sapiens, UniProt P25098). The test can be described thus: GRK2 inhibitors displacing RNA aptamer, dose response, biochemical, flow cytometry beads, FAM-aptamer, powder set 1 (AID 588720). (Flow cytometry measures light scatter and fluorescence of single cells or particles in a stream.)
Beta-adrenergic receptor kinase 1, sequence (P25098 whole entry): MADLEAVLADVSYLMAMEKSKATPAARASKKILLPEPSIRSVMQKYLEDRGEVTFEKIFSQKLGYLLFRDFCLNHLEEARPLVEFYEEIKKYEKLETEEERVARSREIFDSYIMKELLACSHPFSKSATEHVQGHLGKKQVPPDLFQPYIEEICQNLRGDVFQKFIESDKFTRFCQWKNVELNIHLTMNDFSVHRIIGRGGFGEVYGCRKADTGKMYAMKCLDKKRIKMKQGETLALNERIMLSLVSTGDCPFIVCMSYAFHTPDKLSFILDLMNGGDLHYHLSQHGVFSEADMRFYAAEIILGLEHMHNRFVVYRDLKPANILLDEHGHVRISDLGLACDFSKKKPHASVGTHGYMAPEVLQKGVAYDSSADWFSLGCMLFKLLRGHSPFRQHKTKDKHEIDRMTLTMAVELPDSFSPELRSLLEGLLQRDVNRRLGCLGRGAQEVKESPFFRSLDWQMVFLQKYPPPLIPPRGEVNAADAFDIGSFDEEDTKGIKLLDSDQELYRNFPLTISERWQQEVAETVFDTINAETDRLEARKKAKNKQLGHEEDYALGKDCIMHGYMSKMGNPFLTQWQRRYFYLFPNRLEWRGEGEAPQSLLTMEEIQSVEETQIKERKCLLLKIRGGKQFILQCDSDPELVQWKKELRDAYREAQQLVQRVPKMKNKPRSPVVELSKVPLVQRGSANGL
Test [14] concerns the target T7, Small ubiquitin-related modifier 1 (Homo sapiens, UniProt P63165). The test can be described thus: inhibitors of SUMO1 peptide binding, dose response, biochemical, fluorescence polarization, uHTS hits (AID 624382). Format: functional. The conditions noted are these: read-out: IC50_Mean.
Test [15] has as its target T7, Small ubiquitin-related modifier 1. Briefly: inhibitors of SUMO1 partner interactions, dose response, biochemical, FRET (AID 624383). Format: functional. The note with it: read-out: IC50_Mean.
Test [16] deals with Jurkat. The test can be described thus: SAR Analysis of small molecule inhibitors of […] specific antigen receptor-induced NF-kB activation in a Jurkat cell line using a luminescence assay - Set 3. [Related pubchem assays (depositor defined):AID435022, AID435025, AID465]. The note with it: Homo sapiens. It is filed as functional, cell-based.
In test [17] the test system is HEK293. The test can be described thus: SAR Analysis of small molecule inhibitors of B-cell specific antigen receptor-induced NF-kB activation in a HEK-293T cell line using a luminescence assay - Set 2. [Related pubchem assays (depositor defined):AID435022, AID435025, AID489021]. It is filed as functional, cell-based. The note with it: Homo sapiens.
Test [18] deals with HEK293. The test can be described thus: cytotoxicity in HEK293T NF-kB-Luc cells, SAR follow-up, cytotoxicity control for NF-kB activator project, cell-based, resazurin fluorescence (AID 493251). It is filed as functional. The conditions noted are these: Homo sapiens. For orientation: Alamar Blue is a resazurin reagent that responds to reducing activity.

The source made the active and inactive calls.

T1 sequence (Q9UBE0 whole entry): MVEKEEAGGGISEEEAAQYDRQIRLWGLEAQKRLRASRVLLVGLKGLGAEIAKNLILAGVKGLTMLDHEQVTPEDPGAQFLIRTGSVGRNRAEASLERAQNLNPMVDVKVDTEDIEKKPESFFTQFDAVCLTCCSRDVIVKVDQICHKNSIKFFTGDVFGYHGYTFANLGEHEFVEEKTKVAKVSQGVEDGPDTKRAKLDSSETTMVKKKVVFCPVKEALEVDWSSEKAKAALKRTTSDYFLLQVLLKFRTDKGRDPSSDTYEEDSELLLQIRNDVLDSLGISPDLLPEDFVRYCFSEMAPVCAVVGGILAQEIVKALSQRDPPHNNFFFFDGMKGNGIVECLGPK
T1 sequence (Q9UBT2 whole entry): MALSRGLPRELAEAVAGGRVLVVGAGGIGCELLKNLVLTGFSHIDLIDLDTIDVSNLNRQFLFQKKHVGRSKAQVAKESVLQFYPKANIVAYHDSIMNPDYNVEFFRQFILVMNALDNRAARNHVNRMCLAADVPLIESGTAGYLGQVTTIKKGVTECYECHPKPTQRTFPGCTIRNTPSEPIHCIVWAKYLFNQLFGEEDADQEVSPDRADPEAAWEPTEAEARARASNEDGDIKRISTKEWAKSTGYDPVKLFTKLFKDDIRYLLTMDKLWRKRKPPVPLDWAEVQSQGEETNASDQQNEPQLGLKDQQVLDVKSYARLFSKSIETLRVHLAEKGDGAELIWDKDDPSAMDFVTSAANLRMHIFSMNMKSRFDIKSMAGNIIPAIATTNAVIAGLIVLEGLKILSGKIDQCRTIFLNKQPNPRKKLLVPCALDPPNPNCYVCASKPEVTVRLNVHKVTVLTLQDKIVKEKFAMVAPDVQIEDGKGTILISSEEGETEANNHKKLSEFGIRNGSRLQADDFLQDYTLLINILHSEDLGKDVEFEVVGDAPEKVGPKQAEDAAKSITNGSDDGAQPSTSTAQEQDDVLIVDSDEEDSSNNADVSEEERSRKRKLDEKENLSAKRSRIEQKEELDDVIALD
T7 sequence (P63165 whole entry): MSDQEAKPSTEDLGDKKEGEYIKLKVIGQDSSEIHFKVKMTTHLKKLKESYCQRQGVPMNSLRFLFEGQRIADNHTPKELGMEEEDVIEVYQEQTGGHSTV
Dual specificity protein phosphatase 6, sequence (Q64346 whole entry, the tested form may be a part): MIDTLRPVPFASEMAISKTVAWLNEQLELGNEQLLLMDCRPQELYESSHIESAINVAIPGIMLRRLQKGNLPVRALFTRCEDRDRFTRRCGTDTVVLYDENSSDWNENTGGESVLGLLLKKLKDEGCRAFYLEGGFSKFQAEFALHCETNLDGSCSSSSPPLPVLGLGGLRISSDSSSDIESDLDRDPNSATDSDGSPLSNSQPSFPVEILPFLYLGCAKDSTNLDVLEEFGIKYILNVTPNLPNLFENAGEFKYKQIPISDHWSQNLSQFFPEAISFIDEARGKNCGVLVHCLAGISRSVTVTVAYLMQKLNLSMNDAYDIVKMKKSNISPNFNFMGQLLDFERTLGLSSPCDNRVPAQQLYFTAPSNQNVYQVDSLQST

As for `Cc1ccc(NC(=O)CN2C(=O)S/C(=C\c3cc(Cl)c(OCC(=O)O)c(Cl)c3)C2=O)cc1`, the IC50 is 8.11 µM (active) in [1]; 13.5 µM (active) in test [2]; 2.79 µM (active) in test [3]; 3.95 µM (active) in test [4]; 0.819 µM (active) in test [5]; 0.596 µM (active) in test [6]. Also, the IC50 in [7] was 4.09 µM (active); in test [8], 3.55 µM (active); in test [9], 17.8 µM (active); in test [10] it was 2.5 µM (active); in [11] it was 6.61 µM (active).
For `CCOc1ccccc1NC(=O)CCS(=O)(=O)c1ccc(Br)cc1`, the EC50 – broadly, the concentration at which the effect is half-maximal – was 11.6 µM (active) in test [12] and 0.337 µM (active) in test [13]. Moreover, the figures for the IC50 in test [10], in test [14] and in test [15] were 4.09 µM (active), > 66.6 µM (inactive) and 6.76 µM (active), respectively.
For `CCOc1ccc(-c2noc(CCC(=O)NC)n2)cc1`, the IC50 in test [16], in test [17] and in test [18] was > 80 µM (inactive) each time.

These data come from ChEMBL document CHEMBL1201862, “PubChem BioAssay data set” (2004).
